Source: ChEMBL document CHEMBL1201862, “PubChem BioAssay data set” (2004)
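1) Cells in 96-well plates. 2) Compound, 48 h, 5 concentrations. 3) Linear interpolation between surrounding doses. 4) Unreached endpoint = highest concentration. GI50 marks 50% less growth.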 Activity calls are given as the source filed them. Rule as the data show it: active = GI50 up to about 1.1 µM and inactive = higher.

How the values were obtained:
Assay in all cases: NCI tumour cell line growth inhibition, 48 h
MDA-N = tested on: MDA-N
Hs-578T = tested on: Hs-578T
DMS-114 = tested on: DMS-114
DMS-273 = tested on: DMS-273
HOP-18 = tested on: HOP-18
M19-MEL = tested on: M19-MEL
SNB-78 = tested on: SNB-78
XF498 = tested on: XF498

| SMILES | GI50 (MDA-N) | GI50 (Hs-578T) | other results |
| --- | --- | --- | --- |
| N#CC(c1nc2ccccc2s1)c1nc(Cl)ncc1Br (stereo not given) | 36 µM (inactive) | – | – |
| COc1ccc(NC(=S)N/N=C\c2ccc(NC(C)=O)cc2)cc1 | > 100 µM (inactive) | > 100 µM (inactive) | – |
| O=C1c2ccccc2-c2ccc(NC(=O)C3CCCCC3C(=O)O)cc21 (stereo not given) | > 100 µM (inactive) | > 100 µM (inactive) | – |
| COc1cc(OC)c(Oc2cccc(OC)c2OC)c(OC)c1 | – | – | GI50 (DMS-114): > 100 µM (inactive); GI50 (DMS-273): > 100 µM (inactive); GI50 (HOP-18): 29.5 µM (inactive); GI50 (M19-MEL): > 100 µM (inactive); GI50 (SNB-78): > 100 µM (inactive); GI50 (XF498): > 100 µM (inactive) |
| O=C(NCCCNCCCCNCCCNC(=O)c1cc(-c2ccccc2)nc2ccccc12)c1cc(-c2ccccc2)nc2ccccc12 | 1.77 µM (inactive) | 1.75 µM (inactive) | – |
| Cc1cccc2c(N)c3cccc(C(=O)NCCN4CCOCC4)c3nc12 | 0.6 µM (active) | 0.0849 µM (active) | – |
| Cc1ccc(OCC2=NN3C(=O)/C(=C\c4ccc([N+](=O)[O-])o4)SC3N2)cc1 (stereo not given) | 4.3 µM (inactive) | 21.7 µM (inactive) | – |
| N#CCCN(CCC#N)c1ccc(/C=C2\SC(=S)NC2=O)cc1 | > 100 µM (inactive) | > 100 µM (inactive) | – |
| Cc1nc(Cl)c2sc(=S)n(-c3ccc(F)cc3)c2n1 | 1.87 µM (inactive) | 1.86 µM (inactive) | – |
| COC(=O)/C(C#N)=C1\NC(=O)c2ccccc21 | – | – | GI50 (DMS-114): > 100 µM (inactive); GI50 (DMS-273): > 100 µM (inactive); GI50 (HOP-18): > 100 µM (inactive); GI50 (M19-MEL): > 100 µM (inactive); GI50 (SNB-78): > 100 µM (inactive) |
| C/C(=N\Nc1nc2ccccc2n1C)c1cc2ccccc2cn1 | 0.176 µM (active) | 0.0933 µM (active) | – |
| CCc1cccc(C(C)C)c1NC(=O)C(=O)Nn1c(S)nc2ccccc2c1=O | > 100 µM (inactive) | > 100 µM (inactive) | – |
| CC(O)CNC(=O)C(C)Oc1ccc(OCC2CCCCC2)cc1 (stereo not given) | – | – | GI50 (DMS-114): 46.3 µM (inactive); GI50 (DMS-273): > 100 µM (inactive); GI50 (HOP-18): > 100 µM (inactive); GI50 (M19-MEL): > 100 µM (inactive); GI50 (SNB-78): > 100 µM (inactive); GI50 (XF498): > 100 µM (inactive) |
| CC(=O)O[C@H]1/C(=C/c2ccc(N(C)C)cc2)C[C@H]2[C@@H]3CC=C4C[C@@H](N5CCCC5)CC[C@]4(C)[C@H]3CC[C@]12C | – | > 100 µM (inactive) | – |
| COC(=O)c1nc(NN)cc(O)c1CCCCCc1c(O)nc(NN)nc1C(=O)OC | – | – | GI50 (DMS-114): > 95.1 µM (inactive); GI50 (DMS-273): > 100 µM (inactive); GI50 (HOP-18): > 100 µM (inactive); GI50 (M19-MEL): > 100 µM (inactive); GI50 (SNB-78): > 100 µM (inactive); GI50 (XF498): > 100 µM (inactive) |
| Cc1ccc(CC(Cc2ccccc2C)C(=O)O)c(C(=O)O)c1 (stereo not given) | > 100 µM (inactive) | > 100 µM (inactive) | – |

| SMILES | GI50 (MDA-N) | GI50 (Hs-578T) | other results |
| --- | --- | --- | --- |
| CC(C)=CC(=O)CC(=O)C(=O)Nc1ccc(Cl)c(Cl)c1 | – | – | GI50 (DMS-114): > 100 µM (inactive); GI50 (DMS-273): > 100 µM (inactive); GI50 (M19-MEL): > 100 µM (inactive); GI50 (SNB-78): > 100 µM (inactive) |
| O=[N+]([O-])c1sc2ccc(Cl)cc2c1Nc1ccc(Cl)cc1 | – | > 100 µM (inactive) | – |
| CC(C)c1ccc2c(c1)[C@@]1(C)CC[C@H](C)C(C)(C)C1CC2 (stereo not given in full) | 26.1 µM (inactive) | 24 µM (inactive) | – |
| Cc1ccc(-c2nnc(SCC(=O)O)[nH]2)cc1 | – | – | GI50 (DMS-114): > 100 µM (inactive); GI50 (DMS-273): > 100 µM (inactive); GI50 (HOP-18): > 100 µM (inactive); GI50 (M19-MEL): > 100 µM (inactive); GI50 (SNB-78): > 100 µM (inactive); GI50 (XF498): > 100 µM (inactive) |
| O=C(O)CCC(=O)Nc1ccc2c(c1)S(=O)(=O)N(CC(=O)O)C2=O | > 100 µM (inactive) | > 100 µM (inactive) | – |
| COc1cc2c(cc1OC)[C@H](C)N1CCc3cc(OC)c(OC)cc3[C@@H]1C2 | > 100 µM (inactive) | > 100 µM (inactive) | – |
| O=[N+]([O-])c1c(O)c2nonc2c2nn(-c3ccccc3)nc12 | > 100 µM (inactive) | 65.5 µM (inactive) | – |
| O=C(O)C(/C=C/c1ccccc1)c1ccccc1 (stereo not given) | > 100 µM (inactive) | > 100 µM (inactive) | – |
| CC[C@H](C)N(CCN)C(=O)c1cc2ccccc2c(-c2ccccc2Cl)n1 | – | – | GI50 (DMS-114): 13.9 µM (inactive); GI50 (DMS-273): 13.6 µM (inactive); GI50 (SNB-78): 14.3 µM (inactive) |
| CC(C)(C)c1ccc(-c2nnc(-c3cc(C#N)cc(-c4nnc(-c5ccc(C(C)(C)C)cc5)o4)c3)o2)cc1 | > 100 µM (inactive) | 33 µM (inactive) | – |
| CC(O[Si](c1ccccc1)(c1ccccc1)C(C)(C)C)[C@H](NC(=O)OC(C)(C)C)C(=O)O (stereo not given in full) | 38.7 µM (inactive) | 57.1 µM (inactive) | – |
| CON(C)C(=O)C(C)N(Cc1ccccc1)Cc1ccccc1 (stereo not given) | > 100 µM (inactive) | 50 µM (inactive) | – |
| Cn1cnc([N+](=O)[O-])c1Sc1nc2ccccc2[nH]1 | – | – | GI50 (DMS-114): 8.26 µM (inactive); GI50 (DMS-273): 1.91 µM (inactive); GI50 (HOP-18): 67.6 µM (inactive); GI50 (M19-MEL): 14.9 µM (inactive); GI50 (SNB-78): 13.2 µM (inactive); GI50 (XF498): 3.65 µM (inactive) |
| CCCC[C@H]1C(=O)O[C@H](C)[C@H](NC(=O)c2cccc(NC=O)c2O)C(=O)O[C@@H](C)[C@@H]1OC(=O)CC(C)C [ANTIMYCIN A3] | 2.43 µM (inactive) | 13 µM (inactive) | – |
| O=C(O)Cc1ccccc1 [PHENYLACETIC ACID] | > 100 µM (inactive) | > 100 µM (inactive) | – |
